According to patent US3991187A, “Medicinal compositions and methods of use involving phosphoric acid esters” (Aktiebolaget Leo, priority 1971, dated 1976):
Counter-ions that a name gives are not always drawn.

Key:
[1] = test system: gerbil colon; test: smooth muscle stimulatory effect on the gerbil colon in vivo; parameters: species or system mongolian gerbils; conditions: for contraction of the colon: i.v., same dose range (from 40 mg/kg)
Experimental: This example illustrates the smooth muscle stimulatory effect of esters of this invention on the gerbil colon in vivo.
The experiments are performed with mongolian gerbils, anesthetized with pentobarbital, 50 mg/kg. The ascending colon is exposed and carefully stretched between silk thread loops and a strain-gauge transducer.
After a stable base-line has been established an ester of this invention, sodium bis (4-(3-oxo-3-(2,4,6-trihydroxyphenyl)-propyl)phenyl) phosphate is infused i.v.
In doses from 40 mg/kg this treatment causes the gut to respond with a series of contractions.

[2] = test system: prostaglandins E1, E2 F1α and F2α; test: PG-inhibitory effect on the isolated gerbil colon; assay type: cell-based, Gerbils (Meriones unguiculatus); conditions: for selective inhibitory effects compared with PPP: gerbil colon; for concentration for 50 per cent reduction of the PG-induced contraction, as fraction of that of PPP: relative to PPP (10-75 μg/ml)
Experimental: The PG-inhibitory effect of esters of the present invention on the gerbil colon are determined using the general technique described by Eakins, Miller & Karim (J. Pharm. Exp. Ther. 176:441, 1971). Gerbils (Meriones unguiculatus) of own breed, both sexes, weighing 50-80 g are used. The animal is stunned, colon ascendens immediately removed, and a 2-3 cm piece mounted in a 6 ml bath containing a modified de Jalon solution at 28° C and continuously oxygenated. Contractions of the organ are registered either isotonically or isometrically. When testing the inhibitory effect of a compound this is added to the bath 2 min before the addition of prostaglandin. […] Several concentrations of each antagonist are used.

[3] = test system: Slow Reacting Substance (SRS); test: antagonism to Slow Reacting Substance on the isolated guinea-pig ileum (Mathe & Strandberg); assay type: cell-based
Experimental: The antagonism to Slow Reacting Substance (SRS) is determined on the isolated guinea-pig ileum as described by Mathe & Strandberg (Acta physiol. scand. 82:460, 1971). Purified SRS is obtained from cat paws perfused with compound 48/80 (Strandberg & Uvnas: Acta physiol. scand. 82:358, 1971). Sodium bis(4-(3-oxo-3-(2,4,6-trihydroxyphenyl)propyl)phenyl) phosphate was tested in this system in several concentrations.

[4] = test system: PGE1; test: prostaglandin-stimulated glycolysis of the prepubertal ovary (lactic acid production); assay type: cell-based, rats; conditions: for prostaglandin inhibiting activity: compared with the compound giving 50% reduction at 50-100 μg/ml
Experimental: The action of esters of the present invention on the prostaglandin-stimulated glycolysis of the prepubertal ovary is investigated. The method used has been described in detail by Perklev & Ahren (Life Sciences Part I, 10:1387, 1971). In these experiments ovaries from prepubertal rats are removed and placed in Erlenmeyer flasks containing compounds of this invention dissolved in Krebs biocarbonate buffer. After that the ovaries have been preincubated during 60 min. at 37° C in this medium, they are blotted on filter paper and then washed for 2 min. in plain buffer. The ovaries are then transferred to a new incubation medium containing prostaglandins (PG) dissolved in Krebs bicarbonate buffer and incubated at 37° C for 2 hrs with continuous shaking. The ovarian glycolysis is then determined by measuring the concentration of lactic acid in the incubation medium. When polyphloretin phosphate (PPP) is present in the preincubation medium in a concentration of 500 μg/ml, the subsequent ovarian lactic acid production produced by PGE1 is reduced to about 50% of that obtained with ovaries preincubated in plain buffer. When sodium bis(4-(3-(2,4,6-trihydroxyphenyl)propyl)phenyl)phosphate is investigated in the same experimental system, a 50% reduction of the lactate production is seen when only 50-100 μg/ml of the compound is present in the preincubation medium.

[5] = test system: prostaglandins; test: quantitative assay: PG dose-response curves in the presence of inhibitor (Arunlakshana & Schild), gerbil colon; assay type: cell-based, Gerbils (Meriones unguiculatus)
Text: (§1) Results from these experiments give an approximate idea of the PG-inhibitory potency of the compounds. When more precise information about this is desired we use a more elaborate method involving the establishment of several PG dose-response curves in the presence of various concentrations of inhibitor. The method used is essentially the same as that described by Arunlakshana & Schild (Br. J. Pharm. 14:48, 1959). Other agonists, acetylcholine,5-HT and bradykinin, are included in these experiments in order to determine the selectivity of the antagonism.
(§2) In the quantitative assay it is confirmed that sodium bis(4-(3-oxo-3-(2,4,6-trihydroxyphenyl)propyl)phenyl)phosphate has a PG inhibition potency about 10 times that of PPP on a weight basis, and also the results with sodium bis (3,5-dihydroxy-4-(3-(4-hydroxyphenyl)propionyl)phenyl)phosphate are confirmed.

[6] = test system: acetylcholine, 5-HT and bradykinin; test: selectivity of the antagonism: other agonists on the gerbil colon; assay type: cell-based, Gerbils (Meriones unguiculatus); conditions: far higher concentrations than the prostaglandin-inhibitory ones
Text: as §1, §2

[7] = test system: bronchial smooth muscle; test: isolated perfused guinea-pig lung preparation, bronchoconstriction; assay type: cell-based, guinea pigs
Text: The effects of esters of the present invention on bronchial smooth muscle have been investigated using an isolated perfused guinea-pig lung preparation according to Bhattacharya & Delaunois (Arch. Int. Pharmacodyn. 101:495, 1955). The lungs from guinea pigs weighing 300-400 g are removed, and the trachea and A. pulmonalis cannulated. The arterial cannula is connected to a perfusion fluid reservoir containing Tyrode solution buffered with 10 % Sorensen phosphate buffer. The tracheal cannula is connected with tubing to a carbogen gas supply delivering a constant amount per time unit. The perfusion pressure is measured in a side arm of the tubing with a "Mercury" transducer connected to an Ultralette UV-recorder. The compounds are injected via the arterial cannula, close to the entrance of A. pulmonalis in the lung.

| Compound | contraction of the colon [1] | selective inhibitory effects compared with PPP [2] | inhibition of SRS [3] | prostaglandin inhibiting activity [4] | concentration for 50 per cent reduction of the PG-induced contraction, as fraction of that of PPP [2] | influence on the contractions elicited by acetylcholine, 5-HT or bradykinin [6] | also measured |
| --- | --- | --- | --- | --- | --- | --- | --- |
| O=C(CCc1ccc(OP(=O)([O-])Oc2ccc(CCC(=O)c3ccc(O)cc3O)cc2)cc1)c1ccc(O)cc1O.[Na+] [Sodium bis(4-(3-(2,4-dihydroxyphenyl)-3-oxopropyl)phenyl) phosphate] | give contraction in the same dose range | equal to or superior to that of PPP | inhibit SRS | same order |  |  |  |
| O=C(CCc1ccc(O)cc1)c1c(O)cc(OP(=O)(O)Oc2cc(O)c(C(=O)CCc3ccc(O)cc3)c(O)c2)cc1O [sodium bis(3,5-dihydroxy-4-(3-(4-hydroxyphenyl)propionyl)phenyl phosphate] | give contraction in the same dose range |  | inhibit SRS | same order | one fourth | no influence | results of the approximate assay (one fourth of the PPP concentration) in the quantitative assay [5]: confirmed |
| O=C(CCc1ccc(OP(=O)([O-])Oc2ccc(CCC(=O)c3c(O)cc(O)cc3O)cc2)cc1)c1c(O)cc(O)cc1O.[Na+] [sodium bis(4-(3-oxo-3-(2,4,6-trihydroxyphenyl)-propyl)phenyl) phosphate] |  |  |  |  | about one tenth | no influence | minimal effective dose ([1]; Meriones unguiculatus, iv, infused i.v., gerbils anesthetized with pentobarbital, ascending colon, read-out: dose causing the gut to respond with a series of contractions): ≥ 40 mg/kg; PG inhibition potency relative to PPP ([5]; on a weight basis): about 10 times; dose showing a bronchoconstricting effect ([7]; injected via the arterial cannula, about 0.5 mg and upwards): ≥ 0.5 mg; minimal effective concentration ([3]; Cavia porcellus, concentrations as low as, read-out: concentration that inhibits contractions produced by SRS): ≥ 5 µg/mL; manner of inhibition of SRS ([3]; parallel shift of the dose-response curves, no change in maximum contraction): competitive manner; activity as a prostaglandin inhibitor relative to PPP [4]: 5-10 times; IC50 ([4]; Rattus norvegicus, preincubation 60 min at 37° C, read-out: concentration in the preincubation medium giving a 50% reduction of the lactate production): 50 to 100 µg/mL |
| O=P(O)(Oc1ccccc1)Oc1ccccc1 [sodium salt of diphenyl phosphate, sodium diphenyl phosphates, reference compound] |  |  | without effect |  |  |  | effect on the colon ([1]; doses up to 400 mg/kg): no effects at all; effect on PG-induced contraction ([2]; concentrations 10 times as high as that of PPP): without effect; bronchoconstricting effect ([7]; dose 12.8 mg): completely lacked such an effect |
| O=C([O-])COc1cccc(C(=O)CCc2ccc(OP(=O)([O-])Oc3ccc(CCC(=O)c4cccc(OCC(=O)[O-])c4)cc3)cc2)c1.[Na+].[Na+].[Na+] [trisodium bis(4-(3-(3-(carboxylatomethoxy)phenyl)-3-oxopropyl)-phenyl) phosphate] |  | equal to or superior to that of PPP | inhibit SRS | same order |  |  |  |
| COc1ccc(C(=Cc2ccc(C(=O)[O-])cc2)C(=O)c2ccc(OP(=O)([O-])Oc3ccc(C(=O)C(=Cc4ccc(C(=O)[O-])cc4)c4ccc(OC)cc4)c(OC)c3)cc2OC)cc1.[Na+].[Na+].[Na+] [trisodium bis(4-(3-(4-carboxylatophenyl)-2-(4-methoxy-phenyl)-acryloyl)-3-methoxyphenyl) phosphate] |  | equal to or superior to that of PPP | inhibit SRS | same order |  |  |  |
